Measured values from patent US10273233B2, “Inhibitors of influenza viruses replication” (Vertex Pharmaceuticals Incorporated, priority 2015, dated 2019).
Like-named read-outs stand apart in the source and are kept apart here.

Columns and labels:
[1] = system: A/Port Chalmers/1/73; test: 3-day CP assay in MDCK cells; assay type: cell-based; settings: Influenza A virus
[2] = system: A/California/07/2009 NYMC, X-179A; test: 3-day CP assay in MDCK cells; assay type: cell-based; settings: Influenza A virus
[3] = system: A/South Dakota/6/2007; test: 3-day CP assay in MDCK cells; assay type: cell-based; settings: Influenza A virus
[4] = system: A/NWS/33; test: 3-day CP assay in MDCK cells; assay type: cell-based, influenza A; settings: Influenza A virus, MDCK
[5] = system: B/Lee/40; test: 3-day CP assay in MDCK cells; assay type: cell-based; settings: Influenza B virus
[6] = system: A/Henan/Jinshui/147/2007; test: 3-day CP assay in MDCK cells; assay type: cell-based; settings: Influenza A virus
[7] = system: B/Memphis/20/1996--070; test: 3-day CP assay in MDCK cells; assay type: cell-based; settings: Influenza B virus
[8] = system: A/Mal/302/54; test: 3-day CP assay in MDCK cells; assay type: cell-based; settings: Influenza A virus
[9] = system: A/Aichi/2/68; test: 3-day CP assay in MDCK cells; assay type: cell-based; settings: Influenza A virus
[10] = system: A/New Jersey/8/76; test: microbe, parasite or virus in culture; assay type: cell-based; settings: Influenza A virus, MDCK
[11] = system: A/Missouri/3/2006; test: 3-day CP assay in MDCK cells; assay type: cell-based; settings: Influenza A virus
[12] = system: A/FM/1/47; test: 3-day CP assay in MDCK cells; assay type: cell-based; settings: Influenza A virus
[13] = system: A/Victoria/3/75; test: 3-day CP assay in MDCK cells; assay type: cell-based; settings: Influenza A virus
[14] = system: A/Georgia/20/2006; test: 3-day CP assay in MDCK cells; assay type: cell-based, influenza A; settings: Influenza A virus, MDCK
[15] = system: A/Hawaii/2/2006; test: 3-day CP assay in MDCK cells; assay type: cell-based; settings: Influenza A virus
[16] = system: A/Virginia/01/2006; test: 3-day CP assay in MDCK cells; assay type: cell-based; settings: Influenza A virus
[17] = system: A/Nebraska/1/2006; test: 3-day CP assay in MDCK cells; assay type: cell-based; settings: Influenza A virus
[18] = system: A/Weiss/43; test: 3-day CP assay in MDCK cells; assay type: cell-based; settings: Influenza A virus
[19] = system: A/Virginia/ATCC2/2009; test: 3-day CP assay in MDCK cells; assay type: cell-based; settings: Influenza A virus
[20] = system: A/Cambodia0371/2007; test: 3-day CP assay in MDCK cells; assay type: cell-based; settings: Influenza A virus
[21] = system: A/Denver/1/57; test: 3-day CP assay in MDCK cells; assay type: cell-based; settings: Influenza A virus
[22] = system: A/Mexico/4108/2009; test: 3-day CP assay in MDCK cells; assay type: cell-based; settings: Influenza A virus
[23] = system: A/Hong Kong/8/68; test: 3-day CP assay in MDCK cells; assay type: cell-based; settings: Influenza A virus
[24] = system: A/Swine/Iowa/15/30; test: microbe, parasite or virus in culture; assay type: cell-based, influenza A; settings: Influenza A virus, MDCK, in Sus scrofa
[25] = system: B/Russia/69; test: 3-day CP assay in MDCK cells; assay type: cell-based; settings: Influenza B virus
[26] = system: A/California/07/2009; test: 3-day CP assay in MDCK cells; assay type: cell-based; settings: Influenza A virus, MDCK; A/California/07/2009
[27] = system: A/Texas/48/2009; test: 3-day CP assay in MDCK cells; assay type: cell-based; settings: Influenza A virus
[28] = system: A/Puerto Rico/8/34; test: 3-day CP assay in MDCK cells; assay type: cell-based; settings: Influenza A virus
[29] = system: A/Equine/Miami/63; test: microbe, parasite or virus in culture; assay type: cell-based; settings: Influenza A virus, MDCK
[30] = system: A/Wisconsin/67/2005; test: 3-day CP assay in MDCK cells; assay type: cell-based; settings: Influenza A virus
[31] = system: A/Swine/1976/31; test: microbe, parasite or virus in culture; assay type: cell-based; settings: Influenza A virus, MDCK, in Sus scrofa
[32] = system: A/New York/18/2009; test: 3-day CP assay in MDCK cells; assay type: cell-based; settings: Influenza A virus
[33] = system: A/Santiago/7981/2006; test: 3-day CP assay in MDCK cells; assay type: cell-based; settings: Influenza A virus
[34] = system: A/Texas/12/2007; test: 3-day CP assay in MDCK cells; assay type: cell-based; settings: Influenza A virus
[35] = system: A/Uruguay/716/2007; test: 3-day CP assay in MDCK cells; assay type: cell-based; settings: Influenza A virus
[36] = system: A/Georgia/17/2006; test: 3-day CP assay in MDCK cells; assay type: cell-based; settings: Influenza A virus
[37] = system: A/Fukushima/141/2006; test: 3-day CP assay in MDCK cells; assay type: cell-based; settings: Influenza A virus
[38] = system: A/Chelyabinsk/1/200; test: 3-day CP assay in MDCK cells; assay type: cell-based; settings: Influenza A virus
[39] = system: A/St. Petersburg8/2006; test: 3-day CP assay in MDCK cells; assay type: cell-based; settings: Influenza A virus
[40] = system: A/WS/33; test: 3-day CP assay in MDCK cells; assay type: cell-based; settings: Influenza A virus
[41] = system: A/Virginia/ATCC3/2009; test: 3-day CP assay in MDCK cells; assay type: cell-based; settings: Influenza A virus
[42] = physchem; settings: thermodynamic from solid
[43] = physchem; settings: thermodynamic from solid; remark: listed apart in the source

For `NC12CC3CC(CC(C3)C1)C2` [Amantadine, amantadine], the EC50 [1] was > 10 µM, the EC50 [2] was > 10 µM and the EC50 [3] was 0.14 µM. The EC50 [4] was > 10 µM, the EC50 [5] was > 10 µM and the EC50 [6] was > 10 µM. For the same compound, the EC50 [7] was > 10 µM, the EC50 [8] was 2.1 µM and the EC50 [9] was 6.6 µM. The EC50 [10] was 0.82 µM, the EC50 [11] was 6 µM and the EC50 [12] was 0.66 µM. For the same compound, the EC50 [13] was 8.6 µM, the EC50 [14] was > 10 µM and the EC50 [15] was 9.2 µM. For the same compound, the EC50 [16] was > 10 µM, the EC50 [17] was > 10 µM and the EC50 [18] was > 10 µM. For the same compound, the EC50 [19] was > 10 µM, the EC50 [20] was > 10 µM and the EC50 [21] was 0.31 µM. The EC50 [22] was > 10 µM, the EC50 [23] was 3.7 µM and the EC50 [24] was 0.22 µM. For the same compound, the EC50 [25] was > 10 µM, the EC50 [26] was > 10 µM and the EC50 [27] was > 10 µM. The EC50 [28] was > 10 µM, the EC50 [29] was 1.75 µM and the EC50 [30] was > 10 µM. For the same compound, the EC50 [31] was 0.078 µM, the EC50 [32] was > 10 µM and the EC50 [33] was > 10 µM. The EC50 [34] was > 10 µM, the EC50 [35] was > 10 µM and the EC50 [36] was 0.25 µM. For the same compound, the EC50 [37] was 0.46 µM, the EC50 [38] was > 10 µM and the EC50 [39] was > 10 µM. For the same compound, the EC50 [40] was > 10 µM and the EC50 [41] was > 10 µM.
Work on `CC(C)(C)[C@@H](CC(=O)O)Nc1nc(-c2c[nH]c3ncc(F)cc23)ncc1F` [Hydrate 1 of Compound (1)] yielded a solubility at 2 weeks ([42]; pH 0.84, saline or isotonic) of 2150 µg/mL, a solubility at 2 weeks ([42]; pH 1.59, saline or isotonic) of 1150 µg/mL and a solubility at 2 weeks ([42]; pH 2.84, saline or isotonic) of 57 µg/mL. It also gave a solubility at 2 weeks ([42]; pH 4.22, saline or isotonic) of 4 µg/mL, a solubility at 2 weeks ([42]; pH 5.17, saline or isotonic) of 21 µg/mL and a solubility at 2 weeks ([42]; pH 5.96, saline or isotonic) of 78 µg/mL. For the same compound, the solubility at 2 weeks ([42]; pH 6.38, saline or isotonic) was 216 µg/mL, the solubility at 2 weeks ([42]; pH 6.71, saline or isotonic) was 420 µg/mL and the solubility at 2 weeks ([42]; pH 7.07, saline or isotonic) was 335 µg/mL. The solubility at 2 weeks ([42]; pH 7.73, saline or isotonic) was 2240 µg/mL, the solubility at 2 weeks ([42]; pH 8.13, saline or isotonic) was 4830 µg/mL and the solubility at 2 weeks ([42]; pH 8.4, saline or isotonic) was 4360 µg/mL. It also gave a solubility at 5 days ([43]; pH 1.55, fassgf or other biorelevant) of 2660 µg/mL, a solubility at 5 days ([43]; pH 3.56, aqueous with cosolvent or surfactant or cyclodextrin) of 285 µg/mL and a solubility at 5 days ([43]; pH 3.96, aqueous with cosolvent or surfactant or cyclodextrin) of 135 µg/mL. For the same compound, the solubility at 5 days ([43]; pH 4.15, aqueous with cosolvent or surfactant or cyclodextrin) was 1150 µg/mL, the solubility at 5 days ([43]; pH 4.17, aqueous with cosolvent or surfactant or cyclodextrin) was 1640 µg/mL and the solubility at 5 days ([43]; pH 4.18, saline or isotonic) was 108 µg/mL. It also gave a solubility at 5 days ([43]; pH 4.79, aqueous with cosolvent or surfactant or cyclodextrin) of 89 µg/mL, a solubility at 5 days ([43]; pH 4.84, saline or isotonic) of 94 µg/mL and a solubility at 5 days ([43]; pH 4.93, aqueous with cosolvent or surfactant or cyclodextrin) of 108 µg/mL. The solubility at 5 days ([43]; pH 5.03, water) was 98 µg/mL, the solubility at 5 days ([43]; pH 5.04, aqueous with cosolvent or surfactant or cyclodextrin) was 512 µg/mL and the solubility at 5 days ([43]; pH 5.08, aqueous with cosolvent or surfactant or cyclodextrin) was 606 µg/mL. It also gave a solubility at 5 days ([43]; pH 5.11, fessif) of 60 µg/mL, a solubility at 5 days ([43]; pH 5.13, aqueous with cosolvent or surfactant or cyclodextrin) of 354 µg/mL and a solubility at 5 days ([43]; pH 5.22, aqueous with cosolvent or surfactant or cyclodextrin) of 1620 µg/mL. It also gave a solubility at 5 days ([43]; pH 5.39, aqueous with cosolvent or surfactant or cyclodextrin) of 110 µg/mL, a solubility at 5 days ([43]; pH 5.53, aqueous with cosolvent or surfactant or cyclodextrin) of 223 µg/mL and a solubility at 5 days ([43]; pH 5.58, saline or isotonic) of 228 µg/mL. For the same compound, the solubility at 5 days ([43]; pH 5.59, aqueous with cosolvent or surfactant or cyclodextrin) was 152 µg/mL, the solubility at 5 days ([43]; pH 5.74, aqueous with cosolvent or surfactant or cyclodextrin) was 289 µg/mL and the solubility at 5 days ([43]; pH 5.78, aqueous with cosolvent or surfactant or cyclodextrin) was 1020 µg/mL. The solubility at 5 days ([43]; pH 5.83, aqueous with cosolvent or surfactant or cyclodextrin) was 1170 µg/mL, the solubility at 5 days ([43]; pH 5.97, aqueous with cosolvent or surfactant or cyclodextrin) was 272 µg/mL and the solubility at 5 days ([43]; pH 6.04, aqueous with cosolvent or surfactant or cyclodextrin) was 467 µg/mL. The solubility at 5 days ([43]; pH 6.17, aqueous with cosolvent or surfactant or cyclodextrin) was 120 µg/mL, the solubility at 5 days ([43]; pH 6.18, aqueous with cosolvent or surfactant or cyclodextrin) was 170 µg/mL and the solubility at 5 days ([43]; pH 6.19, aqueous with cosolvent or surfactant or cyclodextrin) was 200 µg/mL. It also gave a solubility at 5 days ([43]; pH 6.47, fassif) of 80 µg/mL, a solubility at 5 days ([43]; pH 6.61, aqueous buffer) of 945 µg/mL and a solubility at 5 days ([43]; pH 6.63, aqueous buffer) of 979 µg/mL. It also gave a solubility at 5 days ([43]; pH 6.7, aqueous with cosolvent or surfactant or cyclodextrin) of 360 µg/mL, a solubility at 5 days ([43]; pH 7.42, aqueous buffer) of 7620 µg/mL and a solubility at 5 days ([43]; pH 7.46, aqueous buffer) of 6620 µg/mL. For the same compound, the “USP Definition” value (pH 0.84) was “Slightly Soluble”, the “USP Definition” value (pH 1.59) was “Slightly Soluble” and the “Final Form” value (pH 2.84) was “Hydrate 3”. For the same compound, the “USP Definition” value (pH 2.84) was “Practically Insoluble”, the “Final Form” value (pH 4.22) was “Hydrate 3” and the “USP Definition” value (pH 4.22) was “Practically Insoluble”. For the same compound, the “Final Form” value (pH 5.17) was “Hydrate 3”, the “USP Definition” value (pH 5.17) was “Practically Insoluble” and the “Final Form” value (pH 5.96) was “Hydrate 3”. The “USP Definition” value (pH 5.96) was “Practically Insoluble”, the “Final Form” value (pH 6.38) was “Hydrate 3” and the “USP Definition” value (pH 6.38) was “Very Slightly Soluble”. The “Final Form” value (pH 6.71) was “Hydrate 3”, the “USP Definition” value (pH 6.71) was “Very Slightly Soluble” and the “Final Form” value (pH 7.07) was “Hydrate 3”. The “USP Definition” value (pH 7.07) was “Very Slightly Soluble”, the “Final Form” value (pH 7.73) was “Hydrate 3” and the “USP Definition” value (pH 7.73) was “Slightly Soluble”. The “Final Form” value (pH 8.13) was “Hydrate 3”, the “USP Definition” value (pH 8.13) was “Slightly Soluble” and the “Final Form” value (pH 8.4) was “Hydrate 3”. The “USP Definition” value (pH 8.4) was “Slightly Soluble”.
